Columns and labels:
[1] = tested on: RAW264.7; assay: Antiinflammatory activity in mouse RAW264.7 cells assessed as inhibition of LPS-induced NO production incubated for 2 hrs prior to LPS-challenge measured after 24 hrs by Greiss assay; format: functional, cell-based
[2] = tested on: RAW264.7; assay: Cytotoxicity against mouse RAW264.7 cells assessed as cell viability up to 100 uM; format: cell-based

IC50 [1] | Structure (SMILES) | Activity [2]
18.7 µM | CC[C@H](C)C(=O)[C@@]12C(=O)C3=C(O[C@H](C(C)(C)O)C3)[C@@](C)(C[C@H](CC=C(C)C)[C@@]1(C)CCC=C(C)C)C2=O | Non-toxic
> 50 µM | CC(C)=CCC[C@]1(C)[C@@H](CC=C(C)C)C[C@]2(C)C(=O)C3=C(O[C@H](C(C)(C)O)C3)[C@@]1(C(=O)C(C)C)C2=O | Non-toxic
14.9 µM | CC(C)=CCC[C@]1(C)[C@@H](CC=C(C)C)C[C@@]2(C)C(=O)[C@]1(C(=O)C(C)C)C(=O)C1=C2O[C@@H](C(C)(C)O)C1 | Non-toxic
15.2 µM | CC[C@H](C)C(=O)[C@@]12C(=O)C3=C(O[C@@H](C(C)(C)O)C3)[C@@](C)(C[C@H](CC=C(C)C)[C@@]1(C)CCC=C(C)C)C2=O | Non-toxic
9.5 µM | CC(C)=CCC[C@]1(C)[C@@H](CC=C(C)C)C[C@@]2(C)C(=O)[C@]1(C(=O)C(C)C)C(=O)C1=C2O[C@H](C(C)(C)O)C1 | Non-toxic
39.2 µM | CNC(=N)NCCC[C@H](N)C(=O)O [TILARGININE] | Non-toxic
27.3 µM | CC(C)=CCC[C@]1(C)[C@@H](CC=C(C)C)C[C@]2(C)C(=O)C3=C(O[C@@H](C(C)(C)O)C3)[C@@]1(C(=O)C(C)C)C2=O | Non-toxic
14.5 µM | CC[C@H](C)C(=O)[C@]12C(=O)[C@](C)(C[C@H](CC=C(C)C)[C@@]1(C)CCC=C(C)C)C(=O)C1=C2O[C@@H](C(C)(C)O)C1 | Non-toxic
23.7 µM | CC[C@H](C)C(=O)[C@]12C(=O)[C@](C)(C[C@H](CC=C(C)C)[C@@]1(C)CCC=C(C)C)C(=O)C1=C2O[C@H](C(C)(C)O)C1 | Non-toxic
